Reference: patent publication US10028975B2, “Methods for treating ischemia-reperfusion injury” (Beth Israel Deaconess Medical Center, Inc., priority 2010, dated 2018)

Tests used:
Syk [1] = assay: Syk expression by Western blot in T cells transfected with Syk siRNA; format: cell-based; details: T cells electroporated with siRNA at 0.5, 0.7, 0.9, 1.5 and 2 μM per million, approximately 72 hours
Method: Different concentrations (0.5, 0.7, 0.9, 1.5, and 2 μM per million) of T cells were transfected by electroporation using Amexa Nucleofector solution. Briefly, a total of 5×10^6 T cells were re-suspended in 100 μl Nucleofector solution (Lonza Walkerrsville Inc.; Walkersville, Md.). The desired amount of Syk siRNA was mixed in with the T cell/nucleofector suspension and electrporated. The transfected cells were plated in RPMI-1640 medium without any antibiotic and incubated for approximately 72 hours. After proper incubation, transfected T cells were lysed in RIPA buffer, and Western blotting was performed with an antibody against total Syk (Clone 4D10; Santa Cruz Biotechnology, Inc.; Santa Cruz, Calif.).

[2] = test system: C57BL/6J mice subjected to mesenteric I/R (intestine); assay: Intestinal mucosal injury scoring (H&E) after mesenteric ischemia-reperfusion; format: in vivo, mouse; details: mean±SEM; for intestinal injury score (mucosal injury score): I/R mice, 30 min ischemia, 3 h reperfusion, scale 0-6
Source text: (§1) Mice were randomly assigned to the following experimental groups: (a) mouse chow+sham procedures, (b) mouse chow+I/R procedures, (c) control chow+sham procedures, (d) control chow+I/R procedures, (e) R788 (3 g/kg)+sham procedures, (f) R788 (3 g/kg)+I/R procedures, and (g) R788 (5 g/kg)+I/R procedures […].
(§2) Syk inhibitor R788 was provided by Rigel Pharmaceuticals (South San Francisco, Calif.). Mice were fed food containing R788 (3 g/kg of chow, n=6 or 5 g/kg of chow, n=3), control chow (n=6), or regular chow (n=6). Food was prepared by Research Diets, Inc. (New Brunswick, N.J.). C57BL/6J mice were fed the R788-containing chow ad libitum for 6 days prior to experimentation in order to determine the effect of R788 on I/R injury.
Animals underwent I/R as had been described previously (Chiu et al., Arch Surg. 101: 478-483, 1970 and Fleming et al., J Immunol. 169: 2126-2133, 2002). Briefly, we performed a midline laparotomy before a 30-minute equilibration period. […] A small non-traumatic microvascular clip delivering approximately 85 grams of pressure was then applied for 30 minutes. The clip was removed after this ischemia phase, and the intestines were allowed to reperfuse for 3 hours. Sham-operated mice underwent the above-described surgical intervention without artery occlusion. The laparotomy incisions were sutured with 4.0 SOFSILK™, the mice resuscitated with 1.0 mL pre-warmed sterile phosphate-buffered saline (PBS) subcutaneously, and monitored during the reperfusion period. […]
For histological analysis, 20-cm segments of small intestine specimens were fixed in 10% buffered formalin phosphate immediately after euthanasia. […] To summarize, a normal villus was assigned a score of 0; villi with tip distortion were scored as 1; villi without goblet cells and with Guggenheims' spaces were scored as 2; villi with patchy disruption of the epithelial cells were scored as 3; villi with exposed but intact lamina propria and sloughing of epithelial cell were scored as 4; villi with exuding lamina propria were scored as 5; and villi with hemorrhage or denudation were scored as 6. […]

[3] = test system: C57BL/6J mice subjected to mesenteric I/R (lung); assay: Remote lung injury scoring (H&E) after mesenteric ischemia-reperfusion; format: in vivo, mouse; details: mean±SEM; for total lung injury score: I/R mice, 3 h reperfusion, scale 0-18
Source text: as §1, §2
Animals underwent I/R as had been described previously (Chiu et al., Arch Surg. 101: 478-483, 1970 and Fleming et al., J Immunol. 169: 2126-2133, 2002). Briefly, we performed a midline laparotomy before a 30-minute equilibration period. […] The laparotomy incisions were sutured with 4.0 SOFSILK™, the mice resuscitated with 1.0 mL pre-warmed sterile phosphate-buffered saline (PBS) subcutaneously, and monitored during the reperfusion period. […]
Alveolar and periluminal injury scores in each lung section were calculated based on Cooke's method (Cooke et al., Blood 8: 3230-3239, 1996). For each lung section, we examined 10-20 fields at high power field magnification (400×) and scored for alveolar infiltration on a 3-tiered scale. The calculation of alveolar scores was as follows: when no infiltrate was present, a score of 0 was given; when the infiltrate could be visualized easily only at 400×, a score of 1 was assigned; when infiltrates were readily visible, a score of 2 was assigned; and the score for consolidation was 3. Similarly, each section was scored for periluminal damage (airway or blood vessel) at 100×. […] Based on the overall involvement of the section, a severity score was calculated: the severity score for 0-25% involvement was 1; a severity score of 2 was assigned for 25-50% involvement; and the severity score for >50% involvement was 3. […]

Syk [4] = target: T1, Syk (Mus musculus, UniProt P48025); assay: Syk staining in intestine and lung by immunohistochemistry; format: in vivo; details: pre-treatment with Syk inhibitor, IHC
T1 construct: formalin-fixed paraffin sections of intestine and lung were subjected to rehydration and antigen retrieval; from tissue; host or cells: intestine and lung of C57BL/6J mice
Method: (§3) In order to perform immunohistochemistry (IHC) staining, formalin-fixed paraffin sections of intestine and lung were subjected to rehydration and antigen retrieval using a standard protocol. For IHC studies, the following reagents were used: rabbit anti-mouse Syk (N-19) (Santa Cruz, Calif.), rabbit anti-mouse p-Syk (phospho Y323) (Abeam, Inc.), and rabbit anti-mouse C3 (B-9) (Santa Cruz, Calif.).
Syk expression in the intestine and lung were evaluated by IHC. Syk staining in intestines and lungs were more prominent in I/R groups than in sham-operated groups.

[5] = target: T2, phosphorylated Syk (p-Syk) (Mus musculus, UniProt P48025); assay: p-Syk staining in intestine and lung by IHC and IF; format: in vivo; details: I/R mice group, Syk inhibitor treatment, 3-hour reperfusion
T2 construct: formalin-fixed paraffin sections of intestine and lung were subjected to rehydration and antigen retrieval; from tissue; host or cells: intestine and lung of C57BL/6J mice
Source text: as §3
(§4) For immunofluorescence (IF) staining, formalin-fixed paraffin-embedded sections were blocked with 10% BSA-PBS at room temperature for 1 hour and incubated with FITC-labeled primary or secondary antibodies at room temperature for 1 hour. The slides were washed, and coverslips were mounted with Dako Fluorescent mounting medium and analyzed by confocal microscopy (Nikon Eclipse Ti, Nikon Instruments, Melville, N.Y.). FITC-labeled goat anti-mouse IgG (Santa Cruz, Calif., sc2010), FITC-labeled rat anti-mouse C3 (11H9) (Santa Cruz, Calif., sc-58926), FITC-labeled goat anti-mouse IgM (Southern Biotech, 1021-02), and FITC-labeled rat anti-mouse Ly-6G and LY-6C (Clone R6B-8C5) (BD Pharmingen) were the antibodies used in these studies.
Because the Syk inhibitor suppresses the expression of phosphorylated Syk (p-Syk), the active form of Syk, we performed p-Syk staining by using IHC and IF. We observed staining in I/R group mice. […] After a 3-hour reperfusion, we detected only slight p-Syk staining.

IgM deposition = assay: IgM staining in intestine and lung by immunofluorescence; format: in vivo, mouse; details: I/R intestinal and lung samples, both tissues
Method: as §4
Reperfusion after ischemia induced alteration of the endothelial membrane and allows neoantigen expression. Circulating natural IgM antibodies bind to these antigens and may trigger complement-mediated injury (Williams et al., J Applied Physiol. 86: 938-942, 1999). Therefore, we performed IgM staining by IF, as described above. There was increased IgM staining in I/R intestinal and lung samples when compared to the sham tissues. […] Unlike the differences detected for natural IgM staining, we were only able to detect minimal IgG staining in all groups (data not shown).

[6] = test system: complement component 3 protein (C3) deposition; assay: C3 deposition in intestine and lung by IHC and IF; format: in vivo, mouse; details: I/R mice treated with Syk inhibitor
Source text: as §3, §4
It has been reported that I/R activates the complement system, as indicated by C3 deposition on the intestine (Williams et al., supra). […]

neutrophil infiltration = assay: Neutrophil infiltration (GR-1 staining) in intestine and lung; format: in vivo, mouse
Method: as §4
Therefore, we evaluated the presence of neutrophils in the intestine and lung after sham and I/R procedures in mice treated with Syk inhibitor. Mice subjected to I/R had more prominent GR-1 staining within the intestinal tissue after 3-hour reperfusion when compared to the sham-operated mice group.

[7] = sham-operated mice, Syk inhibitor (R788 3 g/kg chow)

T1 sequence (P48025 whole entry): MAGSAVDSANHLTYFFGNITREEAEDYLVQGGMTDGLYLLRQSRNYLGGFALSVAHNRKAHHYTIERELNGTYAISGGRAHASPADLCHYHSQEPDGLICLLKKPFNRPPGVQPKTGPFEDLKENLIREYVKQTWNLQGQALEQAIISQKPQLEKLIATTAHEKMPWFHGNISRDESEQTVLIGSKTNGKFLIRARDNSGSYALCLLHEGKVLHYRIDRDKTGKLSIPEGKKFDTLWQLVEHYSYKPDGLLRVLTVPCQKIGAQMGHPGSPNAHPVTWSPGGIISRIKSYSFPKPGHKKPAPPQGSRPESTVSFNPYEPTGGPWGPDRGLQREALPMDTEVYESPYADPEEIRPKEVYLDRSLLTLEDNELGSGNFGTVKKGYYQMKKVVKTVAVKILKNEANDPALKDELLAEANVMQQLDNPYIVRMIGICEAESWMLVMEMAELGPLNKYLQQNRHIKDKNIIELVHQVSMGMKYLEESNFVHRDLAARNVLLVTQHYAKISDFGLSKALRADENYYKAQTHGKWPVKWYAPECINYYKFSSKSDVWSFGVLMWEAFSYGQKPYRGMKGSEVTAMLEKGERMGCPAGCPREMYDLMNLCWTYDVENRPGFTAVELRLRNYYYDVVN
T2 sequence (P48025 whole entry, the tested form may be a part): as the sequence (P48025 whole entry) above

## SEQ ID NOs: 3 and 4: Syk-specific siRNA pair: sense CGCUCUUAAAGAUGAGUUAtt, antisense UAACUCAUCUUUAAGAGCGgg (sense CGCUCUUAAAGAUGAGUUATT; antisense UAACUCAUCUUUAAGAGCGGG; chemistry not given here)
Syk [1]
  Syk expression (Western blot): can be inhibited

## SEQ ID NOs: 5 and 6: Syk-specific siRNA pair: sense GCACUAUCGCAUCGACAAAtt, antisense UUUGUCGAUGCGAUAGUGCag (sense GCACUAUCGCAUCGACAAATT; antisense UUUGUCGAUGCGAUAGUGCAG; chemistry not given here)
Syk [1]
  Syk expression (Western blot): can be inhibited

## COc1cc(Nc2ncc(F)c(Nc3ccc4c(n3)N(COP(=O)(O)O)C(=O)C(C)(C)O4)n2)cc(OC)c1OC [R788]
[2]; 3 g/kg R788 in chow for 6 days
  intestinal injury score (mucosal injury score): 0.58±0.08
[2]; 5 g/kg R788 in chow for 6 days
  intestinal injury score (mucosal injury score): 0.92±0.14
[2]; [7]
  intestinal injury score: 0.42±+0.33
[3]; 3 g/kg R788 in chow for 6 days
  total lung injury score: 1.36±0.18
[3]; 5 g/kg R788 in chow for 6 days
  total lung injury score: 1.1±0.46
[3]; [7]
  average pulmonary damage score: 1.03±0.26
Syk [4]
  Syk staining in either the intestine or the lung: did not cause any changes
[5]
  p-Syk staining in the lung and intestine: eliminated p-Syk staining
IgM deposition
  IgM deposition (immunofluorescence staining): reduced IgM deposition
[6]; intestine
  C3 staining in the intestinal mucosa: attenuated C3 staining
[6]; lung
  C3 deposition in the lungs: limited C3 deposition
Neutrophil infiltration; intestinal tissue, 3-hour reperfusion
  I/R-induced neutrophil infiltration (GR-1 staining): prevented I/R-induced neutrophil infiltration
Neutrophil infiltration; lung tissue, I/R mice
  neutrophil infiltration in the lung tissues: decreased infiltration

## SEQ ID NOs: 1 and 2: Syk-specific siRNA pair: sense GGAUAAGAACAUCAUAGAAtt, antisense UUCUAUGAUGUUCUUAUCCtt (sense GGAUAAGAACAUCAUAGAATT; antisense UUCUAUGAUGUUCUUAUCCTT; chemistry not given here)
Syk [1]
  Syk expression (Western blot): can be inhibited
